From patent publication US20210251228A1, “METHODS FOR REPELLING DROSOPHILA SPECIES USING 2-PENTYLFURAN” (The United States of America, as represented by the …, priority 2020, published 2021)

Columns and labels:
Drosophila suzukii [1] = experiment: Multiple-choice bioassay: EAD-active compound added to 4-component SWD lure in gated cup traps; format: in vivo
Method: Multiple-Choice Bioassay: The multiple choice assay (N=8) was conducted with an arena design using a dome cage (60 cm W×60 cm L×60 cm H; BugDorm-2120 Insect tent; shop.bugdorm.com) as described in Cha et al. 2018b (Cha, D. H., et al., Environ. Entomol., 47: 946-950 (2018b)) to evaluate the effect of the individual EAD-active compounds (FIG. 1) on SWD attraction to previously identified 4-component SWD lure (Cha et al. 2012; Cha, D. H., et al., Pest Manag. Sci., 70: 324-331 (2014); Cha, D. H., et al., Environ. Entomol., 46: 907-915 (2017)). Among 18 EAD-active compounds in FIG. 1, acetoin, 1-hexanol, isoamyl acetate, 2-methylbutyl acetate, and 2-phenylethanol were previously tested for their behavioral effects (Cha et al. 2012, 2014) and not considered in this study. Therefore, we compared 13 EAD-active compounds in this study. Within each arena, 14 traps were positioned in a circle (40 cm diameter) at equal distance with each trap 9 cm apart along the circumference. We used an aluminum foil-covered 100-ml glass beaker with a cut centrifuge vial (0.7 cm diameter) inserted in the foil for SWD entry, as a trap (Cha et al. 2012). All 14 traps had the SWD lure comprised of acetic acid, ethanol, acetoin, and methionol. Acetic acid and ethanol were released from a 20 ml solution of 4% acetic acid+8% ethanol with soap, presented as a drowning solution in each trap. Acetoin (1 ml of 50% acetoin in water) and methionol (0.5 ml neat methionol) were individually released from two 1.5-ml vials with 3-mm hole on the lid with a piece of cotton as described in Cha et al. 2014. One of these 14 traps served as a control (with the 4-component SWD lure only) and the remaining 13 traps had one of the 13 EAD-active compounds added to the SWD-lure, loaded as described in Cha et al. 2012 and released from a 1.5-ml vial with 3-mm hole with a piece of cotton. […] The number of flies inside treatment and control traps was counted after 20 h.
(§1) Statistical Analyses: Trap catch data from multiple-choice assay and two-choice assay were analyzed in a randomized block design with block as a random factor and different EAD-active compounds as a fixed factor using Poisson distribution with log link function and maximum likelihood estimation (Proc Glimmix, SAS Institute, SAS/STAT 9.2 User's Guide, Second Edition, 2009, SAS Institute Inc., Cary, N.C.). Oviposition data from (1) laboratory dose-response test, (2) semi-field cage choice test, and (3) first and second field experiments were also analyzed in a randomized block design with block as a random factor and different 2-pentylfuran treatments as a fixed factor using Poisson distribution with log link function and maximum likelihood estimation. […]

Drosophila suzukii [2] = experiment: Field cage choice test: SWD oviposition on raspberries in deli cups; format: in vivo; conditions: two-choice field cage, 10 mg/h sachet, 24 h, N=4
Method: Field cage choice test: We evaluated the effect of 2-pentylfuran released at 10 mg/h on SWD oviposition in choice oviposition experiment under semi-field condition using flies from SWD lab colony in Hawaii. For this experiment, we used a different, more user-friendly dispenser (polyethylene sachet: see Cha et al. 2017). The 10 mg/h release rate of 2-pentylfuran, inferred from calculating weight loss of loaded dispensers over time as described by Cha et al. 2017 (linear regression between weight of sachet containing 2-pentylfuran (mg) and time (h) during 30 h period: sachet weight=669.1[…]*time, R2=0.99, P<0.0001) was achieved using equilateral triangle shaped sachets made with two layers of polyethylene film (0.0508 mm thickness, Thermwell Products Co., Inc, Mahwah, N.J.) with 5 cm on each side. One 2 cm by 1 cm diameter piece of cotton dental wick was placed into the sachet and 1 ml of neat 2-pentylfuran was loaded onto the dental wick with a syringe. Loaded sachets were sealed using an Impulse heat-sealer (Model MP-12C, Midwest Pacific Inc., St. Louis). […]
as §1

In the case of CCCCCc1ccco1 [2-pentylfuran], the “reduction of trap catches of SWD” value (Drosophila suzukii [1]; SWD lure + 2-pentylfuran vs SWD lure only (62 SWD/trap)) is reported as 98%, the “negative effect on SWD attraction to the SWD lure compared with 1-octen-3-ol” value (Drosophila suzukii [1]; multiple-choice, 20 h, N=8) is reported as “significantly stronger than 1-octen-3-ol” and the “effect on SWD attraction to (catch in traps baited with) the 4-component SWD lure” value (Drosophila suzukii [1]; one compound added to SWD lure, 14 traps per arena, flies counted after 20 h, N=8) is reported as “greatest reduction”. For the same molecule, the “trap catch of SWD” value (Drosophila suzukii [1]; trap with SWD lure + 2-pentylfuran, 20 h) was 1 SWD/trap, the “reduction of SWD oviposition on raspberries” value (shortened to “reduction of SWD oviposition”) (Drosophila suzukii [2]; deli cups with 25% opening) was 85% and the “reduction of SWD oviposition” value (Drosophila suzukii [2]; deli cups with 50% opening) was 62%. For the same molecule, the “reduction of SWD oviposition” value (Drosophila suzukii [2]; deli cups with 75% opening) was 75%.
